Read-outs that look alike come from different tables or passages of the source.

One assay concerns the target human KHK-C (Homo sapiens (Human), UniProt P50053). Description: KHK Biochemical Assay (IC50), ADP-Glo, KHK-C. As to conditions: average of at least two separate assays. In outline: (§1)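 Luminescent ADP-Glo read-out of ADP made by His-tagged KHK (BL21 (DE3) expression, Ni-NTA). Enzyme and compound sat together 30 min before ATP/fructose addition, then reacted 4 h at RT in Hepes pH 7.4 buffer with KCl, MgCl2, Triton-X. Quench 1 h, detection 1 h.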
(ADP-Glo turns the ADP formed in a reaction into a luminescent signal.)

The target of the next assay is human KHK-A (Homo sapiens (Human), UniProt P50053). Kind of assay: KHK Biochemical Assay (IC50), ADP-Glo, KHK-A. As to conditions: average of at least two separate assays. In outline:
as §1

For assay [1], the target named is KHK-C expressed in NRK-52E cells (Homo sapiens (Human), UniProt P50053). Kind of assay: KHK-C Cell-based Assay (EC50), NRK CTG, fructose-mediated ATP-depletion.
KHK-C expressed in NRK-52E cells, sequence (P50053 whole entry): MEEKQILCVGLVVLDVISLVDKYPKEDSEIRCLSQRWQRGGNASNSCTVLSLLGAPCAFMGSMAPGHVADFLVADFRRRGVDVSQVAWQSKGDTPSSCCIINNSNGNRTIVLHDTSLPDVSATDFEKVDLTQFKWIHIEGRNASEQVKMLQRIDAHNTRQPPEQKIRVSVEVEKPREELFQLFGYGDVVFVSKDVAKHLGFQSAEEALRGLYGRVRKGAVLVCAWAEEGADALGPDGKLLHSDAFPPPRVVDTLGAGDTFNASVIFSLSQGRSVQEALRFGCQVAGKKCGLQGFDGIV

human KHK-A, sequence (P50053 other isoform, or with tags, fused parts or gaps): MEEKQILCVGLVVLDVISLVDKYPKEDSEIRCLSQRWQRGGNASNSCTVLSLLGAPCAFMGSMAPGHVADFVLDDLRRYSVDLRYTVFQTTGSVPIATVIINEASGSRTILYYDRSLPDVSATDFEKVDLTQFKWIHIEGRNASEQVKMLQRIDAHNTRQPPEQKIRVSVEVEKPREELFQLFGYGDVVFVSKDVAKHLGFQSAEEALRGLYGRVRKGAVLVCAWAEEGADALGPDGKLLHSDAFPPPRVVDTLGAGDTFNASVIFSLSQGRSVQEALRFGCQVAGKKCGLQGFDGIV
human KHK-C, sequence (P50053 whole entry): as the sequence (P50053 whole entry) above

The term IC50 denotes the midpoint of a concentration-inhibition curve. Low readings indicate higher potency, high ones lower potency. The EC50 is the concentration at which the effect is half-maximal. Take `C[C@H]1CCN1c1nc2c(c(-c3ccc(-c4nnn[nH]4)cc3)n1)CCC2` [Example 104, (S)-4-(4-(1H-tetrazol-5-yl)phenyl)-2-(2-methylazetidin-1-yl)-6,7-dihydro-5H-cyclopenta[d]pyrimidine]: the IC50 at human KHK-C (ADP-Glo) is 46.2 nM; at human KHK-A (ADP-Glo), 119 nM. The EC50 in assay [1] was more than 5000 nM.
The corresponding values for `C[C@H]1CCN1c1nc2c(c(-c3cccc(CC(N)=O)c3)n1)CCC2` [Example 244, 2-[3-[2-[(2S)-2-methylazetidin-1-yl]-6,7-dihydro-5H-cyclopenta[d]pyrimidin-4-yl]phenyl]acetamide] are 67.8 nM, 149 nM and 102 nM.
The corresponding values for `C[C@H]1CCN1c1nc2c(c(-c3ccc(C4(C(N)=O)CC4)cc3)n1)CCC2` [Example 252, 1-[4-[2-[(2S)-2-methylazetidin-1-yl]-6,7-dihydro-5H-cyclopenta[d]pyrimidin-4-yl]phenyl]cyclopropanecarboxamide] are 946 nM, 783 nM and 1670 nM.
Consider “ethyl N-[[4-[2-[(2S)-2-methylazetidin-1-yl]-6,7-dihydro-5H-cyclopenta[d]pyrimidin-4-yl]phenyl]methyl]carbamate [Example 359]”, for which the half-inhibitory concentration (IC50) against human KHK-C (ADP-Glo) was determined as 89.7 nM; on human KHK-A (ADP-Glo), 72.4 nM. Further, the half-maximal effective concentration (EC50) in assay [1] (read-out: NRK CTG EC50, NRK-52E cells, fructose-mediated ATP-depletion, Cell-Titer Glo) was 495 nM.
On to `C[C@H]1CCN1c1nc2c(c(-c3cccc(C(C)(C)N)c3)n1)CCC2` [Example 190, 2-[3-[2-[(2S)-2-methylazetidin-1-yl]-6,7-dihydro-5H-cyclopenta[d]pyrimidin-4-yl]phenyl]propan-2-amine], for which the values for the IC50 at human KHK-C (ADP-Glo) and against human KHK-A (ADP-Glo) were 40.8 nM and 48.7 nM, respectively. Also, the EC50 in assay [1] is 28.1 nM.
The like results for `C[C@H]1CCN1c1nc2c(c(-c3cccc([C@H]4C[C@@H]4c4nn[nH]n4)c3)n1)CCC2` (relative stereo) [Example 270, 4-(3-((1S*,2S*)-2-(2H-tetrazol-5-yl)cyclopropyl)phenyl)-2-((S)-2-methylazetidin-1-yl)-6,7-dihydro-5H-cyclopenta[d]pyrimidine] were, in that order, 44.7 nM, 62.3 nM and 2140 nM.
The corresponding values for `C[C@H]1CCN1c1nc2c(c(-c3ccc4c(c3)CC(=O)N4)n1)CCC2` [Example 248, 5-[2-[(2S)-2-methylazetidin-1-yl]-6,7-dihydro-5H-cyclopenta[d]pyrimidin-4-yl]indolin-2-one] are more than 100 nM, 79.6 nM and 154 nM.
The like results for `C[C@H]1CCN1c1nc2c(c(-c3nc4cc(F)ccc4n3C)n1)CCC2` [Example 390, 5-fluoro-1-methyl-2-[2-[(2S)-2-methylazetidin-1-yl]-6,7-dihydro-5H-cyclopenta[d]pyrimidin-4-yl]benzimidazole] were, in that order, 2480 nM, 4220 nM and 3330 nM.
With `C[C@H]1CCN1c1nc2c(c(-c3ccc4c(c3)[C@]3(C[C@@H]3C#N)C(=O)N4)n1)CCC2` (mixture of isomers) [Example 411, rac-(1R,2S)-5′-(2-((S)-2-methylazetidin-1-yl)-6,7-dihydro-5H-cyclopenta[d]pyrimidin-4-yl)-2′-oxospiro[cyclopropane-1,3′-indoline]-2-carbonitrile], the IC50 against human KHK-C amounted to 117 nM; against human KHK-A, 66.3 nM. This compound also showed an EC50 in assay [1] of 473 nM.
With `C[C@H]1[C@H](O)CN1c1nc2c(c(-c3ccc(C(N)=O)cc3)n1)CC2` [Example 125], the IC50 was 572 nM against human KHK-C (ADP-Glo) and 932 nM at human KHK-A (ADP-Glo). The compound also had a half-maximal effective concentration (EC50) in assay [1] of 3560 nM.
Take `C[C@H]1CCN1c1nc2c(c(-c3ccc4c(c3)[C@]3(C[C@H]3C(=O)O)C(=O)N4)n1)CCC2` (racemic) [Example 408, rac-(1R,2R)-5′-(24(8)-2-methylazetidin-1-yl)-6,7-dihydro-5H-cyclopenta[d]pyrimidin-4-yl)-2′-oxospiro[cyclopropane-1,3′-indoline]-2-carboxylic acid]: the half-maximal inhibitory concentration (IC50) against human KHK-C turned out to be 100 nM; on human KHK-A, 158 nM. In assay [1], the half-maximal effective concentration (EC50) is more than 5000 nM.
Turning to `C[C@H]1CCN1c1nc2c(c(-c3cccc(CNC(=O)CCO)c3)n1)CCC2` [Example 227, 3-hydroxy-N-[[3-[2-[(2S)-2-methylazetidin-1-yl]-6,7-dihydro-5H-cyclopenta[d]pyrimidin-4-yl]phenyl]methyl]propanamide], the concentration for half-maximal inhibition (IC50) at human KHK-C (ADP-Glo) amounted to 70.3 nM; on human KHK-A (ADP-Glo), 75.6 nM. In assay [1], the midpoint of the response, the EC50, lay at 265 nM.
The corresponding values for `C[C@H]1CCN1c1nc2c(c(-c3cccc(C(=O)NCC(N)=O)c3)n1)CCC2` [Example 216, N-(2-amino-2-oxo-ethyl)-3-[2-[(2S)-2-methylazetidin-1-yl]-6,7-dihydro-5H-cyclopenta[d]pyrimidin-4-yl]benzamide] are 38.4 nM, 37.8 nM and 390 nM.
The like results for `C[C@H]1CCN1c1nc2c(c(-c3ccc4[nH]c(=O)[nH]c4c3)n1)CCC2` [Example 247, 5-[2-[(2S)-2-methylazetidin-1-yl]-6,7-dihydro-5H-cyclopenta[d]pyrimidin-4-yl]-1,3-dihydrobenzimidazol-2-one] were, in that order, 49.6 nM, 50 nM and 107 nM.
Regarding `C[C@H]1CCN1c1nc2c(c(-c3ccc(C(O)C(F)(F)F)cc3)n1)CCC2` (stereo in doubt) [Example 265, 2,2,2-trifluoro-1-[4-[2-[(2S)-2-methylazetidin-1-yl]-6,7-dihydro-5H-cyclopenta[d]pyrimidin-4-yl]phenyl]ethanol], the half-inhibitory concentration (IC50) on human KHK-C (ADP-Glo) was found to be 1630 nM; against human KHK-A (ADP-Glo) it was 2100 nM. The compound also showed a concentration giving a half-maximal response (EC50) in assay [1] of 700 nM.
The like results for `C[C@H]1[C@H](F)CN1c1nc2c(c(-c3cccc(C4CC4C(=O)O)c3)n1)CCC2` (stereo partly drawn) [Example 48] were, in that order, 5.3 nM, 7.1 nM and 77.1 nM.
Take `C[C@H]1CCN1c1nc2c(c(-c3ccc4c(c3)C3C(C4)C3C(=O)O)n1)CCC2` (stereo partly drawn) [Example 428, 3-[2-[(2S)-2-methylazetidin-1-yl]-6,7-dihydro-5H-cyclopenta[d]pyrimidin-4-yl]-1,1a,6,6a-tetrahydrocyclopropa[a]indene-1-carboxylic acid]: the half-maximal inhibitory concentration (IC50) came out at 41.3 nM on human KHK-C and 38.4 nM at human KHK-A. Moreover, the half-maximal effective concentration (EC50) in assay [1] amounted to 387 nM.
`C[C@H]1CCN1c1nc2c(c(-c3cc(S(N)(=O)=O)c(F)cc3F)n1)CCC2` [Example 130, (S)-2,4-difluoro-5-(2-(2-methylazetidin-1-yl)-6,7-dihydro-5H-cyclopenta[d]pyrimidin-4-yl)benzenesulfonamide]: the IC50 at human KHK-C (ADP-Glo) and against human KHK-A (ADP-Glo) was more than 5000 nM each time. Further, the EC50 in assay [1] was more than 5000 nM.
For the compound `Cc1nc2cc(-c3nc(N4CC[C@@H]4C)nc4c3CCC4)ccc2c(=O)[nH]1` [Example 387, 2-methyl-7-[2-[(2S)-2-methylazetidin-1-yl]-6,7-dihydro-5H-cyclopenta[d]pyrimidin-4-yl]-3H-quinazolin-4-one], the values for the half-maximal inhibitory concentration (IC50) at human KHK-C (ADP-Glo) and on human KHK-A (ADP-Glo) were 9.9 nM and 5.6 nM, respectively. It took 19.6 nM to reach a half-maximal effect in assay [1] (EC50).
Regarding `NC(=O)c1ccc(-c2nc(N3CCC34CCC4)nc3c2CCC3)cc1` [Example 430, 4-[2-(1-azaspiro[3.3]heptan-1-yl)-6,7-dihydro-5H-cyclopenta[d]pyrimidin-4-yl]benzamide], the 50% inhibitory concentration (IC50) against human KHK-C is 2120 nM; on human KHK-A, 3160 nM. This compound also had a concentration giving a half-maximal response (EC50) in assay [1] of 3220 nM.
For the compound `CCOc1cc(-c2nc(N3CC[C@@H]3C)nc3c2CCC3)ccc1C(N)=O` [Example 319, (S)-2-ethoxy-4-(2-(2-methylazetidin-1-yl)-6,7-dihydro-5H-cyclopenta[d]pyrimidin-4-yl)benzamide], the IC50 at human KHK-C (ADP-Glo) was determined as 20.9 nM; at human KHK-A (ADP-Glo) it was 25 nM. The compound also registered an EC50 in assay [1] of 37.3 nM.
The corresponding values for `C[C@H]1CCN1c1nc2c(c(-c3cc(F)c(C(N)=O)c(F)c3)n1)CCC2` [Example 315, (S)-2,6-difluoro-4-(2-(2-methylazetidin-1-yl)-6,7-dihydro-5H-cyclopenta[d]pyrimidin-4-yl)benzamide] are 34 nM, 31.5 nM and 57.3 nM.
The like results for `C[C@H]1CCN1c1nc2c(c(-c3ccc4c(c3)S(=O)(=O)CNC4=O)n1)CCC2` [Example 234, 7-[2-[(2S)-2-methylazetidin-1-yl]-6,7-dihydro-5H-cyclopenta[d]pyrimidin-4-yl]-1,1-dioxo-2,3-dihydro-1lambda6,3-benzothiazin-4-one] were, in that order, 18.9 nM, 39.1 nM and 56.4 nM.
Regarding `O=C1N[C@@]2(CO1)COc1cc(-c3nc(N4CCC4C(F)F)nc4c3CCC4(F)F)ccc12` (stereo partly drawn) [Example 831, (3R)-6-(2-(2-(difluoromethyl)azetidin-1-yl)-7,7-difluoro-6,7-dihydro-5H-cyclopenta[d]pyrimidin-4-yl)-2H-spiro[benzofuran-3,4′-oxazolidin]-2′-one], the IC50 is 0.6 nM against human KHK-C (ADP-Glo) and 6.3 nM against human KHK-A (ADP-Glo). In addition, the EC50 in assay [1] amounted to 8.7 nM.
Take `C[C@H]1CCN1c1nc2c(c(-c3ccc4c(c3)[C@]3(C[C@@H]3C(=O)O)C(=O)N4)n1)CCC2` (racemic) [Example 409, rac-(1R,28)-5′-(24(8)-2-methylazetidin-1-yl)-6,7-dihydro-5H-cyclopenta[d]pyrimidin-4-yl)-2′-oxospiro[cyclopropane-1,3′-indoline]-2-carboxylic acid]: the IC50 was 34.3 nM against human KHK-C and 41 nM against human KHK-A. The EC50 in assay [1] was more than 5000 nM.
`C[C@H]1[C@H](O)CN1c1nc2c(c(-c3cccc(NS(=O)(=O)CC(=O)O)c3)n1)CCC2` [Example 82]: the IC50 against human KHK-C (ADP-Glo) and on human KHK-A (ADP-Glo) was 14.9 nM each time. In assay [1], this compound showed an EC50 of more than 5000 nM.
